Assay results as given in ChEMBL document CHEMBL3137667, “[Drug-induced liver injury; fourteenth updated edition of the bibliographic database of liver injuries and related drugs]” (Gastroenterol Clin Biol, 2004).

Tests used:
[1] = human
[2] = human, serum, 4383 h
[3] = Times to onset, minimal and maximal, observed in the indexed observations. [column 'DELAI' in source]; details: human
[4] = human; remark: listed apart in the source
[5] = human; remark: listed apart in the source
[6] = human; remark: listed apart in the source
[7] = human; remark: listed apart in the source
[8] = Highest frequency of moderate liver toxicity observed during clinical trials, expressed as a percentage. [column '% BIOL' in source]; details: human
[9] = human; remark: listed apart in the source
[10] = human; remark: listed apart in the source
[11] = Highest frequency of acute liver toxicity observed during clinical trials, expressed as a percentage. [column '% AIGUE' in source]; details: human
[12] = human, serum
[13] = human; remark: listed apart in the source
[14] = human; remark: listed apart in the source
[15] = human; remark: listed apart in the source
[16] = human, serum; remark: listed apart in the source
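Wherever Hepatotoxicity (association with vascular disease) is given: count of indexed literature references reporting vascular liver injury in humans, e.g. peliosis hepatitis, hepatic veno-occlusive disease or Budd-Chiari syndrome.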
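Wherever Hepatotoxicity (benign tumour) is given: value is a count of indexed literature references citing a benign tumour confirmed by histopathology.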
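Wherever Hepatotoxicity (choleostasis) is given: human cholestatic liver injury, shown by histopathology or by peak ALT or AST elevation over alkaline phosphatase ratio below 2, value counts indexed literature reports.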
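Wherever Hepatotoxicity (chronic liver disease) is given: chronic liver injury confirmed by histopathology or persistently raised serum aminotransferase activity beyond 6 months, value given as the count of indexed literature references.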
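Wherever Hepatotoxicity (cirrhosis) is given: value is a count of indexed literature references reporting cirrhosis confirmed by histopathology.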
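Wherever Hepatotoxicity (cytolytic) is given: human cytolytic liver injury, shown by histopathology or by a ratio above 5 of peak ALT or AST elevation to alkaline phosphatase elevation, value counts indexed references.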
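Wherever Hepatotoxicity (granulomatous hepatitis) is given: value is a count of indexed literature references reporting granulomatous liver disease confirmed by histopathology.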
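Wherever Hepatotoxicity (malignant tumour) is given: malignant tumour confirmed by histopathology, value gives the count of indexed literature references reporting it.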
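Wherever Hepatotoxicity (severe hepatitis) is given: human clinical data: severe hepatitis, meaning potentially life-threatening liver failure or clinically observed cases, the value counts how many indexed literature references report it.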
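Wherever Hepatotoxicity (steatosis) is given: steatosis confirmed by histopathology, value is the count of indexed references.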

Compound | Hepatotoxicity (malignant tumour) [1] | Hepatotoxicity (chronic liver disease) [2] | Hepatotoxicity (time to onset) [3] | Hepatotoxicity (granulomatous hepatitis) [4] | Hepatotoxicity (animal toxicity known) [5] | Hepatotoxicity (benign tumour) [6] | Hepatotoxicity (steatosis) [7] | Hepatotoxicity (moderate) [8] | Hepatotoxicity (severe hepatitis) [9] | Hepatotoxicity (choleostasis) [10] | Hepatotoxicity (acute) [11] | Hepatotoxicity (acute) [12] | Hepatotoxicity (cytolytic) [13] | Hepatotoxicity (association with vascular disease) [14] | Hepatotoxicity (cirrhosis) [15] | Hepatotoxicity (moderate) [16] | also measured
COc1cc(NS(C)(=O)=O)ccc1Nc1c2ccccc2nc2ccccc12 [AMSACRINE] | 0 | 0 | 5 days - 1 month | 0 | yes | 0 | 1 | 41% | 4 | 0 | 0% | 2 | 2 | 0 | 0 | 10 | –
CCCC1C(=O)N2C(N(C)C)=Nc3ccc(C)cc3N2C1=O (stereo not drawn) [APAZONE] | 0 | 0 | 3 weeks | 1 | yes | 0 | 0 | 0% | 0 | 1 | – | – | 0 | 0 | 0 | 1 | –
Nc1ncn([C@@H]2O[C@H](CO)[C@@H](O)[C@H]2O)c(=O)n1 [AZACITIDINE] | 0 | 0 | 1 week | – | yes | 0 | 0 | – | – | – | – | 1 | – | 0 | 0 | 5 | Hepatotoxicity (granulomatous hepatitis) ([4]; Liver): 0; Hepatotoxicity (moderate) ([8]; Liver): 62.5%; Hepatotoxicity (severe hepatitis) ([9]; Liver): 2; Hepatotoxicity (choleostasis) ([10]; Liver): 0; Hepatotoxicity (acute) ([11]; Liver): 0%; Hepatotoxicity (cytolytic) ([13]; Liver): 1
CCN1CC(CCN2CCOCC2)C(c2ccccc2)(c2ccccc2)C1=O (stereo not drawn) [DOXAPRAM] | 0 | 0 | 1 day - 5 days | 0 | yes | 0 | 1 | 0% | 0 | 0 | 0% | 1 | 1 | 0 | 0 | 1 | –
O=c1[nH]c(=O)n([C@@H]2O[C@H](CO)[C@@H](O)[C@@H]2F)cc1I [FIALURIDINE] | 0 | 0 | 9.5 weeks - 4 months | 0 | yes | 0 | 1 | 0% | 3 | 0 | 33.3% | 1 | 0 | 0 | 0 | 0 | –
COc1ccc2nc(NC(=O)Nc3ccccc3)sc2c1 [FRENTIZOLE] | 0 | 1 | 1 week - 1 month | 0 | yes | 0 | 0 | 70% | 1 | 0 | 0% | 2 | 2 | 0 | 0 | 4 | –
O=C(O)/C=C/C(=O)O [FUMARIC ACID] | 0 | 0 | 2 months | 0 | yes | 0 | 0 | 59% | 0 | 0 | 0% | 0 | 0 | 0 | 0 | 6 | –
CCN(CC)CCNc1ccc(CO)c2sc3ccccc3c(=O)c12 [HYCANTHONE] | 0 | 1 | 1 day - 18 days | 0 | yes | 0 | 1 | 0% | 16 | 1 | 0% | 7 | 3 | 0 | 0 | 1 | –
CC(C)[C@](O)(C(=O)OCC1=CC[N+]2([O-])CC[C@@H](O)[C@@H]12)[C@H](C)O (stereo partly drawn) [INDICINE N-OXIDE] | 0 | 0 | 1 cure - 2 cures | 0 | yes | 0 | 0 | 62.5% | 4 | 0 | 22.7% | 6 | 4 | 1 | 0 | 8 | –
N[C@@H](Cc1cc(I)c(Oc2cc(I)c(O)c(I)c2)c(I)c1)C(=O)O [LEVOTHYROXINE] | 0 | 0 | 12 days - 4 years | 0 | yes | 0 | 0 | 0% | 0 | 0 | 0% | 1 | 0 | 0 | 1 | 1 | –
O=C(OC[C@H]1O[C@@H](OC(=O)c2cc(O)c(O)c(OC(=O)c3cc(O)c(O)c(O)c3)c2)[C@H](OC(=O)c2cc(O)c(O)c(OC(=O)c3cc(O)c(O)c(O)c3)c2)[C@@H](OC(=O)c2cc(O)c(O)c(OC(=O)c3cc(O)c(O)c(O)c3)c2)[C@@H]1OC(=O)c1cc(O)c(O)c(OC(=O)c2cc(O)c(O)c(O)c2)c1)c1cc(O)c(O)c(OC(=O)c2cc(O)c(O)c(O)c2)c1 [TANNIC ACID] | 0 | 0 | – | 0 | yes | 0 | 0 | 0% | 8 | 0 | 0% | 13 | 13 | 0 | 0 | 0 | –
CC[C@]1(O)C[C@@H]2CN(CCc3c([nH]c4ccccc34)[C@@](C(=O)OC)(c3cc4c(cc3OC)N(C)[C@H]3[C@@](O)(C(N)=O)[C@H](O)[C@]5(CC)C=CCN6CC[C@]43[C@@H]65)C2)C1 [VINDESINE] | 0 | 0 | – | 0 | yes | 0 | 0 | 9.1% | 0 | 0 | 0% | 0 | 0 | 0 | 0 | 2 | –
POVIDONE-IODINE | 0 | 0 | – | 0 | yes | 0 | 0 | 80% | 0 | 0 | 0% | 2 | 0 | 0 | 0 | 2 | –
